# Results taken from patent US12364696B2, “Treatment of autoimmune disease” (priority 2019, dated 2025).
# Like-named read-outs stand apart in the source and are kept apart here.
# Columns and labels:
# [1] = Pharmacokinetics of sublingual tofacitinib, plasma LC MS/MS; format: in vivo, human; conditions: for concentration at 24 h: other: sublingual
# Method: Blood samples were left to coagulate at room temperature for 20 minutes before centrifuging at 3500 rotations per minute for 15 minutes. The resulting separated plasma was extracted and stored at −20 degrees Celsius prior to processing using the liquid chromatography tandem mass spectrometry (LC MS/MS) method.
# The mobile phase consisted of (A) 5 mM ammonium acetate pH 4 and (B) methanol. The gradient profile developed was: 0-2.0 min, 90% A, 10% B; 2.0-3.0 min, 30% A, 70% B; 3.0-4.0 min, 90% A, 10% B. A Shimadzu LC MS/MS-8050 triple quadrupole mass spectrometer (Shimadzu, Kyoto, Japan) was used to perform the mass spectrometry. MS/MS analysis was performed in positive ion mode using electrospray ionization conditions.
# [2] = system: patients with moderate to severe, treatment-resistant alopecia areata; conditions: for Mean change from baseline in Assessment of Quality of Life-8D (AQoL-8D) score at Week 28: n = 13; for Mean change from baseline in Alopecia Areata Symptom Impact Scale (AASIS) score at Week 28 - Global Symptom Impact Score / Mean change from baseline in Alopecia Areata Symptom Impact Scale (AASIS) score at Week 28 - Scalp Hair Loss Score: n = 14
# [3] = sublingual, 5 mg tablets, 3 months
# [4] = sublingual, 5 mg tablets, 3 months, n = 16
# [5] = sublingual, listed as sublingual tofacitinib
smiles,measurement,setting,value
C[C@@H]1CCN(C(=O)CC#N)C[C@@H]1N(C)c1ncnc2[nH]ccc12 [tofacitinib],Number of patients who achieved tmax at 0.5 hour,"[1]; Week 28, last dose, 15 patients",One
same,Trace plasma levels prior to the last dose (range),"[1]; Week 28, pre-dose, 10 patient samples",0.5 to 10.0 ng/mL
same,half-life,"[1]; human, plasma, 5 mg, sublingual, Week 28 (FIG. 5b), read-out: Estimated elimination half-life (plasma concentration halving from 29.14 ng/ml to 14.6 ng/ml) (converted)",~11 h
same,concentration at 24 h,"[1]; human, plasma, 5 mg, Week 16, likely spuriously elevated by the nocte dose",7.39 ng/mL
same,concentration at 24 h,"[1]; human, plasma, 5 mg, Week 28, no nocte dose",0.28 ng/mL
same,Tmax,"[1]; human, plasma, sublingual, 5 mg tablet, read-out: Average time (tmax) to maximum plasma concentration",1 h
same,Cmax,"[1]; human, plasma, sublingual, 5 mg tablet, read-out: Maximum plasma concentration (Cmax), average",43.2 ng/mL
same,Changes in blood biochemistry,"[2]; human, in vivo",no clinically significant changes
same,Serious adverse events,"[2]; human, in vivo",no serious adverse events
same,Withdrawals secondary to adverse events,"[2]; human, in vivo",no withdrawals secondary to adverse events
same,"Good grade respondents (50-75%), proportion",[2]; [3],1/16
same,"High grade respondents (75-100%), proportion",[2]; [3],1/16
same,"Low grade respondents (15-29% reduction in SALT score at Week 28), proportion",[2]; [3],3/16
same,Mean reduction in SALT score of the two patients who achieved >50% reduction,[2]; [3],60.3%
same,"Medium grade respondents (30-49%), proportion",[2]; [3],1/16
same,"Participants achieving at least 1 grade improvement in eyebrow assessment scale at Week 28, proportion",[2]; [3],8/16
same,"Participants achieving at least 1 grade improvement in eyelash assessment scale at Week 28, proportion",[2]; [3],6/16
same,Participants who achieved a 100% reduction in SALT score at Week 28,[2]; [3],No participants
same,Patients who achieved a >50% reduction in SALT score,[2]; [3],12.5%
same,Mean reduction from baseline (Week 16) of SALT score at Week 28,[2]; [4],15.57%
same,"Participants achieving at least 1 grade improvement in eyebrow assessment scale at Week 28, percentage",[2]; [4],50%
same,"Participants achieving at least 1 grade improvement in eyelash assessment scale at Week 28, percentage",[2]; [4],37.5%
same,"Participants achieving at least 1 grade improvement in eyebrow assessment scale at Week 28, percentage","[2]; sublingual, 5 mg tablets, 3 months, n = 16, listed as sublingual tofacitinib",(50%)
same,"Total Treatment Response, proportion","[2]; sublingual, 5 mg tablets, Week 28 vs Week 16",6/16
same,"Total Treatment Response, percentage","[2]; sublingual, 5 mg tablets, Week 28 vs Week 16, n = 16, listed as Sublingual tofacitinib",37.5%
same,Mean change from baseline in Assessment of Quality of Life-8D (AQoL-8D) score at Week 28,[2]; sublingual,0.0148
same,Mean change from baseline in Assessment of Quality of Life-8D (AQoL-8D) score at Week 28,[2]; [5],−0.0148
same,Mean change from baseline in Alopecia Areata Symptom Impact Scale (AASIS) score at Week 28 - Global Symptom Impact Score,[2]; sublingual,0.1306
same,Mean change from baseline in Alopecia Areata Symptom Impact Scale (AASIS) score at Week 28 - Scalp Hair Loss Score,[2]; sublingual,2.2142
same,Mean change from baseline in Alopecia Areata Symptom Impact Scale (AASIS) score at Week 28 - Global Symptom Impact Score,[2]; [5],−0.1306
same,Mean change from baseline in Alopecia Areata Symptom Impact Scale (AASIS) score at Week 28 - Scalp Hair Loss Score,[2]; [5],−2.2142
